Where two headings read alike, the source gives them in different places.

Assay [1] deals with KMS-12-BM myeloma cell line. Description: Pim KMS-12 cell assay (phospho-BAD S112 / total BAD, MSD).
The next assay addresses Pim-2 (Homo sapiens (Human), UniProt Q9P1W9). Description: Pim-Mn enzyme assay (HTRF, 384-well), Pim-2. The format is biochemical. The conditions noted are these: Pim-2 enzyme 0.5 pM, ATP 1.5 μM, BAD (S112) 0.5 μM, HTRF, 22-point curve; read-out: Pim-2-Mn IC50 IP. (TR-FRET usually uses a lanthanide donor and a delayed reading to cut background.)
The target in another assay is Pim-1 (Homo sapiens (Human), UniProt P11309). The assay is described as follows: Pim-Mn enzyme assay (HTRF, 384-well), Pim-1. The format is biochemical. The conditions noted are these: Pim-1 enzyme 5 pM, ATP 1.5 μM, BAD (S112) 0.5 μM, HTRF, 22-point curve; read-out: Pim-1-Mn IC50 IP.
Pim-1, sequence (P11309 whole entry): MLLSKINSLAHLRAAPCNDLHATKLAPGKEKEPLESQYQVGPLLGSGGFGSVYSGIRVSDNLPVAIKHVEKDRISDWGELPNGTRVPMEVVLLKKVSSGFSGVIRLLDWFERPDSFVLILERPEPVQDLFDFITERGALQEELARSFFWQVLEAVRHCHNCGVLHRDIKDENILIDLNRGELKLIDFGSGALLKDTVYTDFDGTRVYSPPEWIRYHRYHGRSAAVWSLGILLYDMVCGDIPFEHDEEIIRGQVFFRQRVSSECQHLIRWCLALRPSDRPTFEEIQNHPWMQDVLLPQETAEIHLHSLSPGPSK
The mark [2] stands for this setting: read-out: KMS-12-BM IC50 IP, KMS-12-BM cells, phospho-BAD (S112) vs total BAD, 1 hour 50 min with compound.
Setting [3] is: Homo sapiens, KMS-12-BM, read-out: KMS-12-BM IC50 IP, KMS-12-BM cells, phospho-BAD (S112) vs total BAD, 1 hour 50 min with compound.

Pim-2, sequence (Q9P1W9 whole entry): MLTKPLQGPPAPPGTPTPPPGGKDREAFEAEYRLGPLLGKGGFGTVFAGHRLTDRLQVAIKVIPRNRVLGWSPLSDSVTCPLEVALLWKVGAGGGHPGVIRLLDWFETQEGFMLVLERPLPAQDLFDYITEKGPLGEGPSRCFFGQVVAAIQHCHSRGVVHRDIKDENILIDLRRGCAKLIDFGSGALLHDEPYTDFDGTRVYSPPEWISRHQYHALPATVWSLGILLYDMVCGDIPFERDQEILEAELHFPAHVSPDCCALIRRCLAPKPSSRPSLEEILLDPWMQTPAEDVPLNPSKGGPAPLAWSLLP

As for “2′-(3-(cyclopropylamino)-6-fluoro-2-methylquinoxalin-5-yl)-1′H-spiro[cyclopropane-1,6′-pyrrolo[3,4-b]pyrrol]-4′(5′H)-one [Example 283]”, the IC50 in assay [1] (setting [2]) came to 0.199 µM; at Pim-2 it was 0.0008 µM; on Pim-1 it was 0.0033 µM.

As for `Cc1nc2cccc(-c3cc4c([nH]3)CCNC4=O)c2nc1NC1CCOC1` (racemic) [Example 71, 2-(2-methyl-3-((±)-tetrahydro-3-furanylamino)-5-quinoxalinyl)-1,5,6,7-tetrahydro-4H-pyrrolo[3,2-c]pyridin-4-one], the values for the concentration for half-maximal inhibition (IC50) (in assay [1] (setting [3]); on Pim-2; on Pim-1) were 0.474 µM, 0.0061 µM and 0.0064 µM, respectively.

On to `Cc1nc2cccc(-c3cc4c([nH]3)CCNC4=O)c2nc1NC1CCCC(O)C1` (racemic) [Example 204, 2-(3-((3-hydroxycyclohexyl)amino)-2-methylquinoxalin-5-yl)-6,7-dihydro-1H-pyrrolo[3,2-c]pyridin-4(5H)-one], for which the 50% inhibitory concentration (IC50) in assay [1] (setting [3]) worked out at 0.445 µM; on Pim-2 it was 0.0035 µM; at Pim-1 it was 0.0026 µM.

In the case of `Cc1nc2cccc(-c3cc4c([nH]3)CCNC4=O)c2nc1NC1CCCCC1O` (racemic) [Example 205, 2-(3-((2-hydroxycyclohexyl)amino)-2-methylquinoxalin-5-yl)-6,7-dihydro-1H-pyrrolo[3,2-c]pyridin-4(5H)-one], the IC50 in assay [1] (setting [3]) was 1.14 µM; on Pim-2 it was 0.0045 µM; on Pim-1, 0.0049 µM.

As to `CC1CNC(=O)c2cc(-c3cccc4ccc(Nc5ccccc5)nc34)[nH]c21` (single isomer, unassigned) [Example 30, 7-methyl-2-(2-(phenylamino)quinolin-8-yl)-6,7-dihydro-1H-pyrrolo[3,2-c]pyridin-4(5H)-one], the IC50 in assay [1] (setting [2]) is 5.89 µM.

For the molecule `CC(c1ccccc1)c1ccc2cccc(-c3cc4c([nH]3)CCNC4=O)c2n1` (single isomer, unassigned) [Example 116, 2-(2-(1-phenylethyl)quinolin-8-yl)-6,7-dihydro-1H-pyrrolo[3,2-c]pyridin-4(5H)-one], the IC50 in assay [1] (setting [3]) was 7.54 µM.

As for `Cc1nc2cccc(-c3cc4c([nH]3)CCNC4=O)c2nc1N[C@H]1CCC[C@@H](N)C1` (single isomer, unassigned) [Example 140, 2-(3-((cis-3-aminocyclohexyl)amino)-2-methylquinoxalin-5-yl)-6,7-dihydro-1H-pyrrolo[3,2-c]pyridin-4(5H)-one], the IC50 in assay [1] (setting [3]) was determined as 1.24 µM.

Turning to `Cc1nc2cccc(-c3cc4c([nH]3)CCNC4=O)c2nc1NC1CCCOC1` (single isomer, unassigned) [Example 208, 2-(2-methyl-3-((tetrahydro-2H-pyran-3-yl)amino)quinoxalin-5-yl)-6,7-dihydro-1H-pyrrolo[3,2-c]pyridin-4(5H)-one], the IC50 in assay [1] (setting [3]) was 0.366 µM.

`Cc1nc2cccc(-c3cc4c([nH]3)CCNC4=O)c2nc1NC1CCCOC1` (single isomer, unassigned) [Example 209, 2-(2-methyl-3-((tetrahydro-2H-pyran-3-yl)amino)quinoxalin-5-yl)-6,7-dihydro-1H-pyrrolo[3,2-c]pyridin-4(5H)-one]: in assay [1] (setting [2]), the IC50 was found to be 0.268 µM.

On to `CC[C@@H]1CNC(=O)c2cc(-c3cccc4ccc(Nc5ccccc5)nc34)[nH]c21` [Example 25, (R)-7-ethyl-2-(2-(phenylamino)quinolin-8-yl)-6,7-dihydro-1H-pyrrolo[3,2-c]pyridin-4(5H)-one], for which the IC50 in assay [1] (setting [3]) came to 4.56 µM.

Regarding `Nc1nc2cccc(-c3cc4c([nH]3)CCNC4=O)c2nc1Oc1ccccc1` [Example 36, 2-(2-amino-3-phenoxyquinoxalin-5-yl)-6,7-dihydro-1H-pyrrolo[3,2-c]pyridin-4(5H)-one], the IC50 in assay [1] (setting [3]) amounted to 0.209 µM.

With `Cc1nc2cccc(-c3cc4c([nH]3)CCNC4=O)c2nc1NC(C)(C)C(N)=O` [Example 62, 2-methyl-N-2-(3-methyl-8-(4-oxo-4,5,6,7-tetrahydro-1H-pyrrolo[3,2-c]pyridin-2-yl)-2-quinoxalinyl)alaninamide], the IC50 in assay [1] (setting [3]) stood at 2.61 µM.

Consider `COCC(C)(C)Nc1nc2c(-c3cc4c([nH]3)CCNC4=O)cccc2nc1C` [Example 63, 2-(3-((2-methoxy-1,1-dimethylethyl)amino)-2-methyl-5-quinoxalinyl)-1,5,6,7-tetrahydro-4H-pyrrolo[3,2-c]pyridin-4-one], for which the IC50 in assay [1] (setting [3]) worked out at 0.513 µM; at Pim-2 it was 0.0054 µM; on Pim-1, 0.0043 µM.

Regarding `COCC(C)(C)Nc1nc2c(-c3cc4c([nH]3)CCNC4=O)cccc2nc1C` [Example 66, 2-(3-((2-methoxy-1,1-dimethylethyl)amino)-2-methyl-5-quinoxalinyl)-1,5,6,7-tetrahydro-4H-pyrrolo[3,2-c]pyridin-4-one], the values for the IC50 (in assay [1] (setting [2]); on Pim-2; at Pim-1) were 0.215 µM, 0.0007 µM and 0.0027 µM, respectively.

As for `Cc1nc2cccc(-c3cc4c([nH]3)CCNC4=O)c2nc1NC1(C)CCCC1` [Example 67, 2-(2-methyl-3-((1-methylcyclopentyl)amino)-5-quinoxalinyl)-1,5,6,7-tetrahydro-4H-pyrrolo[3,2-c]pyridin-4-one], the IC50 in assay [1] (setting [3]) amounted to 0.167 µM; on Pim-2 it was 0.0006 µM; on Pim-1, 0.0004 µM.

Turning to `O=C1NCCc2[nH]c(-c3cccc4ccc(N[C@H]5CC[C@H](O)CC5)nc34)cc21` [Example 82, 2-(2-(((1R,4R)-4-hydroxycyclohexyl)amino)quinolin-8-yl)-6,7-dihydro-1H-pyrrolo[3,2-c]pyridin-4(5H)-one], in assay [1] (setting [3]), the IC50 was 4.62 µM.

As to `Cc1cc2cccc(-c3cc4c([nH]3)CCNC4=O)c2nc1Oc1ccccc1` [Example 104, 2-(3-methyl-2-phenoxyquinolin-8-yl)-6,7-dihydro-1H-pyrrolo[3,2-c]pyridin-4(5H)-one], in assay [1] (setting [3]), the IC50 came to 5.23 µM.

With `O=C1NCCc2[nH]c(-c3cccc4ccc(Nc5c(F)cccc5F)nc34)cc21` [Example 175, 2-(2-((2,6-difluorophenyl)amino)quinolin-8-yl)-6,7-dihydro-1H-pyrrolo[3,2-c]pyridin-4(5H)-one], the IC50 in assay [1] (setting [3]) came to 1.51 µM.

`CC1(C)CCCN1c1cnc2cccc(-c3cc4c([nH]3)CCNC4=O)c2n1` [Example 216]: in assay [1] (setting [3]), the 50% inhibitory concentration (IC50) is 0.225 µM.

For the molecule `CC[C@H]1CNC(=O)c2cc(-c3cccc4ccc(Nc5ccccc5)nc34)[nH]c21` [Example 239, (S)-7-ethyl-2-(2-(phenylamino)quinolin-8-yl)-6,7-dihydro-1H-pyrrolo[3,2-c]pyridin-4(5H)-one], in assay [1] (setting [3]), the IC50 came out at 1.85 µM.

Consider `Cc1nc2cccc(-c3cc4c([nH]3)CCNC4=O)c2nc1CC(C)(C)C` [Example 272, 2-(3-(2,2-dimethylpropyl)-2-methyl-5-quinoxalinyl)-1,5,6,7-tetrahydro-4H-pyrrolo[3,2-c]pyridin-4-one], for which the IC50 in assay [1] (setting [3]) is 1.53 µM; on Pim-2 it was 0.0078 µM.

Turning to `Cc1nc2cccc(-c3cc4c([nH]3)CCNC4=O)c2nc1NC(C)(C)CCO` [Example 279, 2-(3-((3-hydroxy-1,1-dimethylpropyl)amino)-2-methyl-5-quinoxalinyl)-1,5,6,7-tetrahydro-4H-pyrrolo[3,2-c]pyridin-4-one], the IC50 in assay [1] (setting [3]) amounted to 0.252 µM.

Regarding `CC(C)(C)Nc1nc2c(-c3cc4c([nH]3)CCNC4=O)cccc2nc1C=O` [Example 282, 3-(tert-butylamino)-5-(4-oxo-4,5,6,7-tetrahydro-1H-pyrrolo[3,2-c]pyridin-2-yl)-2-quinoxalinecarbaldehyde], the IC50 in assay [1] (setting [3]) was 3.44 µM; at Pim-1, 0.0053 µM.

As usually defined, the IC50 is the concentration that inhibits the measured activity by half.

For the origin of these results see US9394297B2, “Amides as pim inhibitors” (AMGEN INC., priority 2012, dated 2016).
